Values after ≈ are worked out from the molar mass of the structure shown. Read-outs that look alike come from different tables or passages of the source.
Columns and labels:
[1] = tested on: PBMCs; test: MTT cytotoxicity assay in PBMCs; format: cell-based, human; conditions: Homo sapiens, PBMC; for IC20: incubation for 48 h, read-out: IC20 PBMCs (inhibitory concentration at 20% growth)
Method: PBMCs were isolated from blood samples using the Ficoll-Hypaque technique. Initially, 10–20 mL of blood was collected in a heparin tube at a ratio of 1:500 from a minimum of three healthy volunteers. Subsequently, the blood samples were diluted with Phosphate buffer saline (PBS), pH 7.4, at a ratio of 1:1 to reduce viscosity. Histopaque-1077 (Sigma-Aldrich, MA, USA) was then underlaid the diluted sample and centrifuged at 400×g for 30 min. The resulting PBMCs were collected, washed with PBS, pH 7.4, and prepared for further experiments.
MTT (3-(4,5-dimethylthiazol-2-yl)-2,5-diphenyltetrazolium bromide) assay was used to investigate the cytotoxicity of the test samples. KG-1a (1.5 × 10^4 cells/well), K562 (1.0 × 10^4 cells/well), PBMCs (1.0 × 10^5 cells/well), A549 (5.0 × 10^3 cells/well), MCF-7 (5.0 × 10^3 cells/well), and HeLa (5.0 × 10^3 cells/well) were seeded into a 96-well plate and incubated overnight at 37 °C with 5% CO2. […] After that, 5 mg/mL of MTT dye solution (Sigma-Aldrich, MA, USA) was added and incubated for 4 h. The produced formazan crystals were dissolved in 200 µL of DMSO (Sigma-Aldrich, MA, USA); then, the optical density (OD) was measured using an ELISA plate reader (Metertech, Taipei, Taiwan) at 578 nm with a reference wavelength of 630 nm. The percentage of surviving cells was calculated from the absorbance values of the test and control wells using the following Equation. 1 [drawing 1]
where ODsample is a mean absorbance in test well and ODvehicle control is a mean absorbance in VC well. The average percentage of surviving cells at each concentration obtained from triplicate experiments was plotted as a dose-response curve. Inhibitory concentration values at 50% growth (IC50 value) were defined as the lowest concentration of the test sample that inhibited cell growth by 50% compared to the untreated control.
To calculate IC50 values, a dose-response curve was fitted using non-linear regression analysis, as described in the GraphPad Prism guidelines (https://www.graphpad.com/support/faq/how-to-determine-an-icsub50sub/). The IC50 value was obtained by determining the point at which the curve intersected 50% growth inhibition. Non-linear regression graphs of the dose-response curve for each compound are provided in the supplementary data file (Figs. S1–S8).

[2] = tested on: RAW264.7 cells; test: Cytotoxicity (IC20, cell viability) in RAW264.7 cells; format: cell-based; conditions: Mus musculus, RAW264.7; incubation for 48 h; read-out: IC20 RAW264.7 (inhibitory concentration at 20% growth)
Method: MTT (3-(4,5-dimethylthiazol-2-yl)-2,5-diphenyltetrazolium bromide) assay was used to investigate the cytotoxicity of the test samples. […] After that, 5 mg/mL of MTT dye solution (Sigma-Aldrich, MA, USA) was added and incubated for 4 h. The produced formazan crystals were dissolved in 200 μL of DMSO (Sigma-Aldrich, MA, USA); then, the optical density (OD) was measured using an ELISA plate reader ([…], Taiwan) at 578 nm with a reference wavelength of 630 nm. The percentage of surviving cells was calculated from the absorbance values of the test and control wells using the following Equation. 1 [drawing 1] […] Afterward, supernatants were collected, and the levels of TNF-α and NO were measured using the Mouse TNF alpha Uncoated ELISA Kit (InvitrogenTM, ThermoFisher Scientific, MA, USA) and the Total Nitric Oxide Assay Kit (InvitrogenTM, ThermoFisher Scientific, MA, USA), respectively, according to the manufacturer's instructions.

[3] = tested on: CD34 protein expression in KG-1a cells; test: CD34 protein expression in KG-1a cells by Western blotting; format: cell-based, human; conditions: IC20 concentrations, 48 h, normalized to GAPDH
Method: KG-1a cells (1.5 × 10^5 cells/mL) were treated with compounds or extracts at different incubation times. Then, the cells were harvested and the whole proteins were extracted using a RIPA buffer (25 mM Tris-base, pH 7.6, 0.1% SDS, 1% Triton X-100, 150 mM NaCl, and 1 mM EDTA). The protein concentration was measured using the Folin-Lowry or Bradford assay. The whole protein lysates (30 µg/lane) were then separated through 7.5% SDS-PAGE under reducing conditions and then transferred to PVDF membranes. The membranes were blocked in 5% skim milk in PBS, pH 7.4 at RT for 2 h, then, target proteins were probed with specific primary antibodies (anti-WT1, anti-CD34, anti-GAPDH, anti-cleaved caspase-3, anti-cleaved PARP, anti-phospho-Akt, anti-phospho-c-Jun, anti-phospho-SAPK/JNK, and anti-YAP/TAZ) indicated in Table S10 which diluted at a ratio of 1:1,000 in PBS, pH 7.4 at RT for 2 h. After incubation, the membranes were rinsed 6 times with 0.1% Tween-20 (Sigma-Aldrich, MA, USA) in PBS, pH 7.4 (PBS-T), each time for 5 min. The reaction was followed by HRP-conjugated secondary antibody at 1:20,000 dilution in PBS, pH 7.4 at RT for 2 h, then, the membranes were rinsed 6 times for 5 min each with PBS-T. The proteins were shown using Immobilon Forte Western HRP substrate (Millipore, MA, USA). Finally, the protein band signal was quantified by using a scan densitometer (Bio-Rad Laboratories, CA, USA).

[4] = tested on: KG-1a cells; test: Cell cycle and apoptosis (sub-G1) assay by flow cytometry in KG-1a cells; format: cell-based, human; conditions: 48 h; for change of cell cycle phase population compared to VC: IC20 concentrations; for G2/M phase population: IC50 concentrations
Method: After treating KG-1a cells with active compounds at various concentrations for 48 h, the cells were pulsed with 10 µM BrdU (Sigma-Aldrich, MA, USA) for 20 min at 37 °C in an incubator with 5% CO2. Subsequently, the cells were harvested, washed with ice-cold PBS, pH 7.4 three times, and then fixed with 70% ethanol in PBS, pH 7.4 at −30 °C. Following fixation, the cells were washed and resuspended in 2 N HCl/0.5% Triton X-100 for 30 min at room temperature (RT). Then, 0.1 M sodium tetraborate decahydrate was added for 2 min at RT to neutralize the acid. Subsequently, the cells were stained with FITC-anti-BrdU antibody for 30 min at RT. After washing, the cells were resuspended in propidium iodide (PI) (Dojindo, Kumamoto, Japan) in PBS, pH 7.4 at a ratio of 1:1,000. The cell cycle phases were detected using a flow cytometer (CytoFLEX S, Beckman Coulter, CA, USA) and analyzed with the CytExpert program (Beckman Coulter, CA, USA).
The flow cytometry data were analyzed to assess both apoptosis and cell cycle distribution. Apoptosis was evaluated by determining the percentage of cells in the sub-G1 phase using the Nicoletti assay. For cell cycle analysis, populations in the G1, S, and G2/M phases were calculated after excluding the sub-G1 population to avoid interference from apoptotic cells, allowing for a clearer assessment of cell cycle arrest in different phases. Data were presented in separate graphs for the sub-G1 population and cell cycle phase distributions.

[5] = Table S8, PBMCs, first replicate, read-out: IC50 value R1
[6] = Table S8, PBMCs, second replicate, read-out: IC50 value R2
[7] = Table S8, PBMCs, third replicate, read-out: IC50 value R3
[8] = active compounds and drugs, MTT, 48 h, read-out: IC50 PBMCs
[9] = IC20 concentration (nocodazole 6 ng/mL, curcumin 3 µg/mL, shogaol 0.12 µg/mL)
[10] = higher concentrations than IC20

Structure (SMILES) | IC50 [1, 5] | IC50 [1, 6] | IC50 [1, 7] | IC50 [1, 8] | IC20 [1] | IC20 [2] | decrease of CD34 protein level compared to VC [3] | decrease of S phase population ([4]; 1.5 µg/mL, sub-G1 excluded) | effect on sub-G1 population compared to VC [4, 9] | change of cell cycle phase population compared to VC [4] | G2/M phase population ([4]; sub-G1 excluded) | effect on sub-G1 population compared to VC [4, 10]
CCCCC/C=C/C(=O)CCc1ccc(O)c(OC)c1 [Shogaol, shogaol] | 8.3 µg/mL (≈ 30 µM) | 9.9 µg/mL (≈ 35.8 µM) | 9.35 µg/mL (≈ 33.8 µM) | 9.18 ± 0.82 µg/mL (≈ 33.2 µM) | 6.06 ± 1.11 µg/mL (≈ 21.9 µM) | 2.71 ± 0.62 µg/mL (≈ 9.81 µM) | 35.93 ± 3.70% | 40.56 ± 3.82% | did not significantly increase the sub-G1 population | neither curcumin nor shogaol induced significant changes in the cell cycle phase population | 31.38 ± 1.60% | significant increases in the sub-G1 population
COc1cc(/C=C/C(=O)CC(=O)/C=C/c2ccc(O)c(OC)c2)ccc1O [Curcumin, curcumin] | 13.8 µg/mL (≈ 37.4 µM) | 14.6 µg/mL (≈ 39.6 µM) | 13 µg/mL (≈ 35.2 µM) | 13.8 ± 0.82 µg/mL (≈ 37.4 µM) | 3.72 ± 0.58 µg/mL (≈ 10.1 µM) | 2.08 ± 0.15 µg/mL (≈ 5.65 µM) | 29.29 ± 2.43% |  | did not significantly increase the sub-G1 population | neither curcumin nor shogaol induced significant changes in the cell cycle phase population | 43.66 ± 6.75% | significant increases in the sub-G1 population

Reference: article PMC11869560, “Anticancer and cancer preventive activities of shogaol and curcumin from Zingiberaceae family plants in KG-1a leukemic stem cells” (BMC Complementary Medicine and Therapies, 2025)
